Measurements taken from patent publication US8097759B2, “Inflammatory cytokine release inhibitor” (Institute of Medicinal Molecular Design, Inc., priority 2000, dated 2012).

Tested on: NF-κB activation
Assay: NF-κB activation reporter assay (pNFκB-Luc luciferase) under TNF-α stimulation
Type: cell-based, human
Conditions: HepG2 or HeLa cells, TNF-α 40 ng/ml, 4 hours; for inhibition at 1 µg/mL / inhibition at 10 µg/mL: Homo sapiens, read-out: The rate of inhibitory activity against NF-κB activation (%)
Method: Using a transfection reagent (Effectene; QIAGEN), the human hepatoma cell strain HepG2 or the human hysterocarcinoma cell strain HeLa was transfected with the firefly luciferase gene (Luc) contained plasmid (pNF κB-Luc Reporter Plasmid; […]) which contained oligonucleotide having five tandem copies of NF-κB binding sequences ([…]) on a upstream region of Luc, according to the QUAGEN's protocol and it was incuvated for 6-24 hours. After addition of TNF-α (40 ng/ml) with or without the test compound, the cells were incuvated for 4 hours, and intracellular luciferase activity was measured with PicaGene LT (TOYO INK MFG Co., Ltd.) and chemical luminescence measurement device ([…]luor Plus; TECAN). The inhibition ratio was measured as a ratio to the value of the luciferase activity without the test compound.

[1] = Concentration of the agent: 1 μg/mL
[2] = Concentration of the agent: 10 μg/mL

SMILES	inhibition at 1 µg/mL [1] [%]	inhibition at 10 µg/mL [2] [%]	The rate of inhibitory activity against NF-κB activation (%) [1] [%]	The rate of inhibitory activity against NF-κB activation (%) [2] [%]
O=C(Nc1cc(C(F)(F)F)cc(C(F)(F)F)c1)c1cc(C=Cc2ccccc2)ccc1O [Compound 63]	95.5	96.9		
C#Cc1ccc(O)c(C(=O)Nc2cc(C(F)(F)F)cc(C(F)(F)F)c2)c1 [Compound 64]	53.3	90.1		
C[Si](C)(C)C#Cc1ccc(O)c(C(=O)Nc2cc(C(F)(F)F)cc(C(F)(F)F)c2)c1 [Compound 66]	91.1	94.9		
O=C(Nc1cc(C(F)(F)F)cc(C(F)(F)F)c1)c1cc(-c2ccccc2)ccc1O [Compound 67]	91.8	96.8		
O=C(Nc1cc(C(F)(F)F)cc(C(F)(F)F)c1)c1cc(C(F)(F)F)ccc1O [Compound 69]	96.4	99.6		
O=C(Nc1cc(C(F)(F)F)cc(C(F)(F)F)c1)c1cc(C(F)(F)C(F)(F)F)ccc1O [Compound 70]	93.3	95.4		
O=C(Nc1cc(C(F)(F)F)cc(C(F)(F)F)c1)c1cc(-n2cccc2)ccc1O [Compound 71]	93.8	97.9		
O=C(Nc1cc(C(F)(F)F)cc(C(F)(F)F)c1)c1cc(-c2cccs2)ccc1O [Compound 72]	79.5	97.8		
O=C(Nc1cc(C(F)(F)F)cc(C(F)(F)F)c1)c1cc(-c2ccsc2)ccc1O [Compound 73]	81.7	92.9		
COc1ccc(O)c(C(=O)Nc2cc(C(F)(F)F)cc(C(F)(F)F)c2)c1 [Compound 77]	30.7	97		
O=C(Nc1cc(C(F)(F)F)cc(C(F)(F)F)c1)c1ccc(O)c(C(=O)Nc2cc(C(F)(F)F)cc(C(F)(F)F)c2)c1 [Compound 82]	-8.7	94.5		
O=C(Nc1ccc(O)c(C(=O)Nc2cc(C(F)(F)F)cc(C(F)(F)F)c2)c1)c1ccccc1 [Compound 90]	1	63.4		
O=C(Nc1ccccc1)Nc1ccc(O)c(C(=O)Nc2cc(C(F)(F)F)cc(C(F)(F)F)c2)c1 [Compound 91]	20.5	88.4		
O=C(Nc1cc(C(F)(F)F)cc(C(F)(F)F)c1)c1cc(NC(=S)Nc2ccccc2)ccc1O [Compound 92]	51.8	97.2		
O=C(Nc1cc(C(F)(F)F)cc(C(F)(F)F)c1)c1cc(N=Nc2ccc([N+](=O)[O-])cc2)ccc1O [Compound 93]	96.2	98.7		
CC(=O)Oc1ccccc1C(=O)Nc1cc(C(F)(F)F)cc(C(F)(F)F)c1 [Compound 95, 2-Acetoxy-[3,5-bis(trifluoromethyl)phenyl]benzamide]			90.9	97.1
CC(=O)Oc1ccc(Cl)cc1C(=O)Nc1cc(C(F)(F)F)cc(C(F)(F)F)c1 [Compound 96]	96.5	99.2		
CC(=O)Nc1cc(O)c(C(=O)Nc2cc(C(F)(F)F)cc(C(F)(F)F)c2)cc1Cl [Compound 97]	69.9	96		
O=C(Nc1cc(C(F)(F)F)cc(C(F)(F)F)c1)c1ccc(Cl)cc1O [Compound 98]	90.5	98.2		
O=C(Nc1cc(C(F)(F)F)ccc1C(F)(F)F)c1cc(Br)ccc1O [Compound 101]	95.7	98.3		
O=C(Nc1ccccc1C(F)(F)F)c1cc(Cl)ccc1O [Compound 104]	76.2	96.9		
O=C(Nc1cccc(C(F)(F)F)c1)c1cc(Br)ccc1O [Compound 106]	80.7	93.3		
O=C(Nc1cccc(C(F)(F)F)c1F)c1cc(Cl)ccc1O [Compound 107]	92.3	95		
O=C(Nc1ccc(F)c(C(F)(F)F)c1)c1cc(Cl)ccc1O [Compound 108]	94.7	97.6		
O=C(Nc1ccc(Cl)c(C(F)(F)F)c1)c1cc(Br)ccc1O [Compound 109]	83	88.8		
O=C(Nc1cc(F)cc(C(F)(F)F)c1)c1cc(Cl)ccc1O [Compound 110]	94.7	98.9		

SMILES	inhibition at 1 µg/mL [1] [%]	inhibition at 10 µg/mL [2] [%]	The rate of inhibitory activity against NF-κB activation (%) [1] [%]	The rate of inhibitory activity against NF-κB activation (%) [2] [%]
O=C(Nc1cc(C(F)(F)F)ccc1F)c1cc(Cl)ccc1O [Compound 112]	93.1	95.9		
O=C(Nc1cc(C(F)(F)F)ccc1Cl)c1cc(Cl)ccc1O [Compound 113]	94.8	97.1		
O=C(Nc1cc(C(F)(F)F)ccc1Cl)c1cc(Br)ccc1O [Compound 114]	88.9	94.1		
O=C(Nc1ccc([N+](=O)[O-])c(C(F)(F)F)c1)c1cc(Cl)ccc1O [Compound 115]	89	94.3		
O=C(Nc1cc(C(F)(F)F)ccc1[N+](=O)[O-])c1cc(Cl)ccc1O [Compound 116]	86.3	96.7		
Cc1c(NC(=O)c2cc(Cl)ccc2O)cccc1C(F)(F)F [Compound 118]	94.1	96.3		
Cc1ccc(NC(=O)c2cc(Cl)ccc2O)cc1C(F)(F)F [Compound 119]	88.1	91.7		
Cc1ccc(C(F)(F)F)cc1NC(=O)c1cc(Cl)ccc1O [Compound 120]	93.8	97.9		
COc1ccc(NC(=O)c2cc(Cl)ccc2O)cc1C(F)(F)F [Compound 121]	85.5	96.5		
COc1cc(NC(=O)c2cc(Br)ccc2O)cc(C(F)(F)F)c1 [Compound 122]	84.5	97.2		
COc1ccc(C(F)(F)F)cc1NC(=O)c1cc(Br)ccc1O [Compound 123]	76.6	93.4		
CSc1ccc(C(F)(F)F)cc1NC(=O)c1cc(Cl)ccc1O [Compound 125]	94.6	99.1		
O=C(Nc1cc(C(F)(F)F)ccc1N1CCCC1)c1cc(Br)ccc1O [Compound 126]	95.8	97.8		
O=C(Nc1cc(C(F)(F)F)ccc1N1CCOCC1)c1cc(Br)ccc1O [Compound 127]	81.8	86.4		
O=C(Nc1ccc(C(F)(F)F)cc1)c1cc(Cl)ccc1O [Compound 128]	87.2	95		
O=C(Nc1ccc(C(F)(F)F)cc1Cl)c1cc(Br)ccc1O [Compound 129]	75.4	85.8		
O=C(Nc1ccccc1)c1cc(Br)ccc1O [Compound 139]	-48.2	60.2		
O=C(Nc1cccc(Cl)c1)c1cc(Br)ccc1O [Compound 140]	94.2	96.7		
O=C(Nc1ccc(Cl)cc1)c1cc(Br)ccc1O [Compound 141]	83.3	96.4		
O=C(Nc1cc(Cl)ccc1Cl)c1cc(Cl)ccc1O [Compound 142]	95.1	96.9		
O=C(Nc1ccc(Cl)c(Cl)c1)c1cc(Br)ccc1O [Compound 143]	91.6	93.8		
O=C(Nc1cc(F)cc(F)c1)c1cc(Br)ccc1O [Compound 144]	91.8	96.8		
O=C(Nc1cc(Cl)cc(Cl)c1)c1ccccc1O [Compound 145]	92.9	95.5		
O=C(Nc1cc(Cl)cc(Cl)c1)c1cc(F)ccc1O [Compound 146]	94.2	97		
O=C(Nc1cc(Cl)cc(Cl)c1)c1cc(Cl)ccc1O [Compound 147]	84.5	96.8		
